Test in all cases: growth of human tumour cells (NCI), 48 h
The test system of test [1] is SR leukemia.
Test [2] concerns PC-3 prostate.
For test [3], the system named is OVCAR-8 ovarian.
Test [4] has as its system SW-620 colon.
Test [5] concerns NCI-H460 lung.
In test [6] the test system is MALME-3M melanoma.
The subject of test [7] is SF-295 CNS.
Test [8] deals with MDA-MB-435.
The test system of test [9] is SK-MEL-28 melanoma.
In test [10] the test system is DU-145 prostate.
Test [11] deals with NCI-H226 lung.
In test [12] the test system is HCT-116 colon.
Test [13] has as its system HOP-92 NSCLC.

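96-well plates; 48 h exposure; 5 concentrations. Endpoints by linear interpolation between flanking doses. Not reached: highest tested concentration assigned. TGI: total growth inhibition.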 Bounds are passed on as bounds.

Regarding `CC(Cc1ccc2c(c1)OCO2)N(C)C(=O)C1=CCN(C)CC1` (centres undefined), the TGI in test [1], in test [2], in test [3], in test [4], in test [5] and in [6] was > 100 µM throughout. The TGI in [7], in test [8], in test [9], in test [10], in test [11] and in test [12] was > 100 µM each time.
In the case of `Cc1ccc(N2C(=O)C(=O)N(/N=C3\C(=O)Nc4ccccc43)C2=S)cc1`, the TGI in test [1], in test [2], in test [3], in test [4], in [5] and in [6] was > 100 µM throughout. Besides, the TGI in test [7], in test [8], in test [9], in [10], in test [13] and in test [12] was > 100 µM each time.
As to `CC(=O)Oc1cc(S(=O)(=O)Nc2n[nH]c(N)n2)c(S)cc1Cl`, the TGI in [1], in test [2], in test [3], in test [4], in test [5] and in [6] was > 100 µM in each case. Further, the TGI in test [7], in test [8], in test [9], in test [10], in test [13] and in [12] was > 100 µM throughout.
As to `CC(=O)Nc1nnc(S(=O)(=O)NC(=S)Nc2ccc(Cl)cc2)s1`, the TGI in [1], in test [2], in test [3], in test [4], in test [5] and in test [6] was > 100 µM in each case. Further, the TGI in [7], in [8], in test [9], in [10], in test [13] and in test [12] was > 100 µM throughout.
Take `CCN1C(=O)CS/C1=N\NC(=O)CSc1nc2ccccc2c(=O)n1CC`: the TGI in test [1], in test [2], in [3], in test [4], in test [5] and in [6] was > 100 µM throughout. Moreover, the TGI in [7], in test [8], in [9], in test [10], in test [11] and in test [12] was > 100 µM each time.
`CN(C)C(=O)Oc1ccc(C(=S)Nc2ccccc2)cc1Br`: the TGI in [1] is 63.3 µM; in test [2], > 100 µM; in [3], 39.4 µM; in test [4], > 100 µM; in test [5] it was > 100 µM; in test [6] it was > 100 µM. Further, the TGI in [7] is > 100 µM; in test [8], 43.9 µM; in [9] it was > 100 µM; in test [10] it was > 100 µM; in test [12], > 100 µM.
On to `COC(=O)CNCC1OC2OC(C)(C)OC2C1N=[N+]=[N-]` (centres undefined), for which the TGI in [1], in test [2], in [3], in test [4], in test [5] and in test [7] was > 100 µM in each case. The TGI in test [8], in test [9], in test [10], in test [13], in test [11] and in [12] was > 100 µM in each case.
As to `O=C1/C(=C/c2ccc(Cl)cc2)Sc2scc(-c3cccc([N+](=O)[O-])c3)[n+]21`, the TGI in [1] turned out to be 2.42 µM; in [2], 20.6 µM; in test [4] it was 3.82 µM; in test [5], 20.3 µM; in test [7] it was 17.9 µM; in [8], 13.2 µM. Further, the TGI is 10.2 µM in test [9], > 33.3 µM in test [10], 5.39 µM in [13] and > 100 µM in test [11].
As to `CCOC(=O)c1c(NC(=O)c2ccc(Br)cc2)sc2c1CCCC2`, the TGI in test [1] is > 100 µM; in [2] it was > 100 µM; in test [3], > 100 µM; in test [4] it was > 100 µM; in test [5] it was 20 µM; in [7] it was > 100 µM. Also, the TGI in test [8], in test [9], in test [10], in test [11] and in test [12] was > 100 µM each time.
As for `Cc1cc(C#N)c(Nc2ccccc2[N+](=O)[O-])s1`, the TGI in [1] is > 100 µM; in [2] it was 73.9 µM; in [3], > 100 µM; in test [4], > 100 µM; in test [5], > 100 µM; in test [7], > 100 µM. For the same compound, the TGI in test [8] was 47.5 µM; in [9] it was > 100 µM; in test [10], 78.8 µM; in [13], > 100 µM; in [11], > 100 µM; in test [12], > 100 µM.
Consider `COc1cc2c(cc1OCCCCN1CCN(CCCCOc3cc4c(cc3OC)C(=O)N3CCC[C@H]3C=N4)CC1)N=C[C@@H]1CCCN1C2=O`, for which the TGI in test [1] is > 100 µM; in test [2] it was 3.12 µM; in test [3] it was 18.6 µM; in [4], > 40 µM; in [5] it was > 32 µM; in [7], 0.242 µM. Further, the TGI in [8] was 0.165 µM; in test [10] it was > 100 µM; in test [13], 0.255 µM; in test [11], 0.0891 µM; in test [12], 22.5 µM.
Consider `N#CCN(Cc1ccccc1)[C@@H]1CCC[C@]1(O)C#Cc1ccc2c(c1)OCO2`, for which the TGI amounted to 40.9 µM in [1]; 50.7 µM in test [2]; 32.2 µM in test [3]; 58.6 µM in test [4]; 36.1 µM in [5]; 34.3 µM in [6]. For the same compound, the TGI is 41.8 µM in test [7]; 42.1 µM in test [8]; 33.3 µM in test [9]; > 100 µM in [10]; 27 µM in test [13]; 33.6 µM in test [11].

For the origin of these results see PubChem BioAssay (NCI).
